Assay results from patent US5049550A, “Diadenosine 5', 5'"-p^1, p^4,-tetraphosphate analogs as antithrombotic agents” (Worcester Foundation for Experimental Biology, priority 1988, dated 1991).

Tests used:
Format in all cases: cell-based
[1] = system: rabbit platelet aggregation by ADP; assay: ADP-induced aggregation of rabbit platelets
Description: (§1) Rabbit carotid arterial blood was collected in 3.8% sodium citrate (9 volumes blood to 1 volume citrate). Platelet rich plasma (PRP) and platelet poor plasma (PPP) were prepared by centrifugation at 150 g and 1,000 g for 10 minutes respectively. Aggregation studies were performed in a Chrono-Log (Havertown, Pa.) aggregometer with ADP or collagen as aggregating agents. ADP (Sigma Chemical Co.) was used in a final concentration of 2×10^-5 M. Calf skin collagen (Sigma Chemical Co.) was used in a final concentration of 200 ug/ml.
(§2) The effect of AP4 A on rabbit platelet aggregation by ADP and collagen was tested. […] The anti-aggregatory effect of AP4 A was detected at a concentration of 2×10^-4 M (tenfold that of ADP) and increased in a dose-response pattern with increasing concentrations (FIG. 1).

[2] = system: ADP-induced platelet aggregation; assay: Kinetics of ADP-induced platelet aggregation (double-reciprocal plot); details: FIG. 6
Description: Changes in light transmission reflecting the velocity of ADP-induced platelet aggregability was determined using a platelet aggregometer. Born, G.V.P., Nature 184:927-929 (1962). […] The Y points on the X-intercept are altered by factors [formula] where I is the concentration of inhibitor, and Ki is a characteristic constant. Points on the X-intercept are given by the expression [formula] intercept when [I]=0. When [I] is known, the equation can be solved for Ki.

[3] = system: rabbit platelet aggregation by collagen; assay: Collagen-induced aggregation of rabbit platelets
Description: as §1, §2

Nc1ncnc2c1ncn2[C@@H]1O[C@H](COP(=O)(O)OP(=O)(O)OP(=O)(O)OP(=O)(O)OC[C@H]2O[C@@H](n3cnc4c(N)ncnc43)[C@H](O)[C@@H]2O)[C@@H](O)[C@H]1O [AP4 A, diadenosine 5',5'"-p^1,p^4 -tetraphosphate]
minimal effective concentration ([1]; Oryctolagus cuniculus, Platelet, ADP 2×10^-5 M (tenfold that of ADP), read-out: concentration at which the anti-aggregatory effect was detected): 200 µM | effect of addition during ADP aggregation ([1]; added during aggregation, ADP 2×10^-5 M): blunted the secondary wave response to ADP and caused the dispersion of aggregated platelets | inhibition of ADP-induced aggregation ([1]; same dose as tested with collagen): almost complete inhibition | Ki ([2]; competitive inhibition of ADP-induced aggregation): 17.1 µM | type / relative strength of inhibition ([2]; double reciprocal plot): competitive inhibition | effect on preformed aggregates caused by collagen ([3]; added after aggregation, collagen 200 ug/ml (FIG. 2)): no effect | effect on collagen-induced aggregation ([3]; added prior to induction, collagen 200 ug/ml (FIG. 3B)): inhibiting slightly | effect on collagen-induced platelet aggregation ([3]; same dose that almost completely inhibits ADP-induced aggregation): little or no effect
